Laboratory results published in article PMC9056950, “Synthesis and biochemical evaluation of cephalosporin analogues equipped with chemical tethers” (RSC Advances, 2020).
Values after ≈ are worked out from the molar mass of the structure shown.

Legend:
S. aureus (NCTC 6571) = test system: T1, S. aureus (NCTC 6571); set-up: species or system Staphylococcus aureus NCTC 6571; broth microdilution growth, OD600 after 16 h, MIC from GraphPad fit; conditions: 16 h
T1 construct: NCTC 6571
Procedure: Stock solutions of each compound were prepared in 50% DMSO/water at ×100 the final concentration. In a 96-well plate, 2 μL of the test compounds were added to each well. Each plate included the positive control (750 μg mL^−1 chloramphenicol), the negative control (50% DMSO/water) and media only wells. To each test well was then added 198 μL of the required bacteria stock (OD 0.05). E. coli assays were carried out using LB broth, S. aureus were carried out using tryptic soy broth (TSB). Plates were incubated at 37 °C and the OD600 was measured (Epoch 2 Microplate Spectrophotometer, BioTek) every 30 min over a 17 h period. Tests were carried out in triplicate, the background absorbance was removed using reference wells, and the averages were determined. Dose curves were plotting using the OD600 after 16 h growth vs. compound concentration. MICs were defined as the minimum concentration of compound at which no significant growth was observed after 16 h incubation. MIC values were determined using GraphPad Prism (version 8.3.0). The activity of 1–12 was investigated with growth assays against Staphylococcus aureus (NCTC 6571). S. aureus is a virulent Gram-positive pathogen that can cause a wide range of infections in humans.[29,30] Each compound was tested at 400–6 μM concentrations, with lower concentrations tested as required.

PBP4 = molecular target: T2, PBP4 (Bacillus subtilis, UniProt P32959); experiment: biochemical; set-up: gene pbpE; commercial protein (Generon); protein thermal shift assay, melting temperature change of PBP4; conditions: read-out: Average DTm/°C
T2 sequence (P32959 1-451): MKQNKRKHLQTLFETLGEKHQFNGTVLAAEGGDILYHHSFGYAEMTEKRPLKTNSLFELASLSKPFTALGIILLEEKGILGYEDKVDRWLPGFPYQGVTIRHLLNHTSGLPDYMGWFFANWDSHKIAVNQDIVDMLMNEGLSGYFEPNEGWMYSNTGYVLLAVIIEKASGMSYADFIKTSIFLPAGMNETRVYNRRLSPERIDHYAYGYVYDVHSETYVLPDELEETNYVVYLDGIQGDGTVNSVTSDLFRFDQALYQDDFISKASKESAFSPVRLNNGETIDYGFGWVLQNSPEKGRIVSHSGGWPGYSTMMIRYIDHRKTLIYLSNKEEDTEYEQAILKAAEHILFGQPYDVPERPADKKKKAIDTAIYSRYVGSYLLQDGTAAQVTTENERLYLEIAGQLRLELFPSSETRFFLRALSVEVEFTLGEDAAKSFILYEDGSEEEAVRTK
Procedure: The thermal shift assay was carried out using the Protein Thermal Shift™ assay kit (Applied Biosystems). 3 μM of purified E. coli PBP3 was incubated with the β-lactam analogues at 300 μM concentration in a mixture containing the Protein Thermal Shift™ Dye. The samples were then heated in a StepOnePlus™ Real-Time PCR System from 25 to 95 °C at a rate of 1 °C min^−1. Tests were carried out in triplicate and the averages plotted as the negative first derivative vs. temperature. Reference wells, i.e. solutions consisting only of only PBP3 with dye, PBP3 only, and dye only, were used as controls. Melting temperature (Tm) values were determined with and without each compound, and the change in melting temperature (ΔTm) was obtained, Fig. 2. The thermal shift assay with PBP4 was carried out using the protocol described for PBP3, with the follow deriviatisation: 500 nM of purified Bacillus subtilis PBP4 was incubated with 50 μM of the β-lactam analogues. A thermal shift assay was used to investigate the binding of the cephalexin analogues to the therapeutic target, PBP, in vitro. This assay provides a fast and inexpensive method of detecting a ligand binding to a protein of interest. Briefly, the protein is gradually heated in the presence of a fluorescent dye that binds non-specifically to the hydrophobic surfaces. […]

CC1(C)S[C@@H]2[C@H](NC(=O)Cc3ccccc3)C(=O)N2[C@H]1C(=O)O [compound 11, penicillin]
MIC (best-fit) (S. aureus (NCTC 6571)): 0.0977 µM (≈ 0.0327 µg/mL) | ΔTm at 50 µM (PBP4): -0.746 °C
